Test results as given in patent US20250051367A1, “HETEROCYCLE-CONTAINING LONP1 INHIBITOR COMPOUNDS, USES AND METHODS” (Pretzel Therapeutics, Inc., priority 2021, published 2025).

Biological target: LONP1 (NM_004793.4) (Homo sapiens (Human), UniProt P36776)
Test: LONP1 FRET-based protease activity assay (fluorogenic peptide substrate)
Assay type: biochemical
Conditions: substrate 3 μM, LONP1 15 nM, 1 hour at 37° C.; average of a minimum of two repeats
Description: The inhibitory activity of the compounds of the present invention against LONP1, 20S proteasome and other proteases are determined by assays known to persons of ordinary skill in the art (see, e.g., Fishovitz, J. et al. “Active-Site-Directed Chemical Tools for Profiling Mitochondrial Lon Protease” ACS Chem. Biol. 6, 781-788 (2011)).
In this Example, LONP1 (NM_004793.4) activity was measured by a FRET-based assay for protease activity using a fluorogenic peptide DabcylYRGIT(2Abu)SGRQK(5-FAM) (Cambridge Research Biochemicals) as substrate. LONP1 activity is followed by an increase in fluorescence signal due to the degradation of the peptide. Inhibition of LONP1 protease activity by an inhibitor compound of the disclosure elicits a decrease in the fluorescent signal.
The assay is performed in a 384-well plate (Greiner, cat. #781076) using the following reagents and conditions: substrate (3 μM) was incubated for 1 hour at 37° C. in the presence of LONP1 (15 nM as monomer), 25 mM Tris pH 8.0, 10 mM MgCl2, 0.03 mg/mL BSA, 0.5 mM DTT, 0.0003% Tween-20, 10 mM NaCl, 0.06 mM ATP and 0.5 mM EGTA in a 15 μL final volume. The LONP1-containing mix (10 μL) was incubated with the test compound for 15 min at 37° C. before adding the peptide-containing mix (5 μL). Solutions were dispensed using a small cassette-Multidrop Combi (Thermo Scientific). Fluorescence was measured using a PheraStar plate reader (BMG Labtech) FI-FRET EX 485 nm Em 520 nm.
Each value is based on an average of a minimum of two repeats.

Chain of LONP1 (NM_004793.4) (P36776 68-959): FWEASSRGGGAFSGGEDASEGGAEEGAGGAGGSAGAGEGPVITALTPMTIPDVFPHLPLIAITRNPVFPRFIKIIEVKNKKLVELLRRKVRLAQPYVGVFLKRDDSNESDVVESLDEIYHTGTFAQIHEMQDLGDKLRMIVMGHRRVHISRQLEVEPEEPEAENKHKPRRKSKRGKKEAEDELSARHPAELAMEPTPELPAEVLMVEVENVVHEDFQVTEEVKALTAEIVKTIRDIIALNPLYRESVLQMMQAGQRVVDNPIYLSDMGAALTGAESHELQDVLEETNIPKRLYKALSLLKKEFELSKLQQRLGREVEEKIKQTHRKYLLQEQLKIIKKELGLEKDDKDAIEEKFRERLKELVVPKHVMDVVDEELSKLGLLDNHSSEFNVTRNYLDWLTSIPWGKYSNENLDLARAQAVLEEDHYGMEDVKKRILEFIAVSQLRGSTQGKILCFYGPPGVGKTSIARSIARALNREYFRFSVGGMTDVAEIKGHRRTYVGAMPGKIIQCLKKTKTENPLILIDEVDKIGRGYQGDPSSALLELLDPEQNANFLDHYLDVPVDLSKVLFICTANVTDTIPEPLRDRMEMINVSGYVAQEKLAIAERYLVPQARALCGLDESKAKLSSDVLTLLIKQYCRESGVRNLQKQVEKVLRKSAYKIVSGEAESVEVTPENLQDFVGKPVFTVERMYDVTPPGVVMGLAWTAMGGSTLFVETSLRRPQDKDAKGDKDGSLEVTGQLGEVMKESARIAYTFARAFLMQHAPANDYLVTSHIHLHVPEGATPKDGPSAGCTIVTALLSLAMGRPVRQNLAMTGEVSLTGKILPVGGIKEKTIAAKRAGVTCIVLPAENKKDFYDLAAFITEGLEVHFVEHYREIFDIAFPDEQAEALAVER

Row | IC50 [nM] | SMILES
1 | 50 to 500 | CC(C)C[C@H](NC(=O)[C@H](Cc1nccn1C)NC(=O)c1cnccn1)B(O)O [Compound 9, ((R)-3-methyl-1-((S)-3-(1-methyl-1H-imidazol-2-yl)-2-(pyrazine-2-carboxamido)propanamido)butyl)boronic acid]
2 | < 50 | O=C(N[C@H](Cc1ncco1)C(=O)N[C@@H](CCCc1ccccc1)B(O)O)c1cnccn1 [Compound 10, ((R)-1-((R)-3-(oxazol-2-yl)-2-(pyrazine-2-carboxamido)propanamido)-4-phenylbutyl)boronic acid]
3 | < 50 | O=C(N[C@@H](Cc1ncco1)C(=O)N[C@@H](CCCc1ccccc1)B(O)O)c1cnccn1 [Compound 11, ((R)-1-((S)-3-(oxazol-2-yl)-2-(pyrazine-2-carboxamido)propanamido)-4-phenylbutyl)boronic acid]
4 | < 50 | Cn1ccnc1C[C@@H](NC(=O)c1cnccn1)C(=O)N[C@@H](CCCc1ccccc1)B(O)O [Compound 12, ((R)-1-((R)-3-(1-methyl-1H-Imidazol-2-yl)-2-(pyrazine-2-carboxamido)propanamido)-4-phenylbutyl)boronic acid]
5 | 50 to 500 | Cn1ccnc1C[C@H](NC(=O)c1cnccn1)C(=O)N[C@@H](CCCc1ccccc1)B(O)O [Compound 13, ((R)-1-((S)-3-(1-methyl-1H-imidazol-2-yl)-2-(pyrazine-2-carboxamido)propanamido)-4-phenylbutyl)boronic acid]

Continued, compound first:

Row | SMILES | IC50 [nM]
6 | Cn1ccc(C[C@@H](NC(=O)c2cnccn2)C(=O)N[C@H](CCCc2ccccc2)B(O)O)n1 (stereo in doubt) [Compound 4, ((S)-1-((R)-3-(1-methyl-1H-pyrazol-3-yl)-2-(pyrazine-2-carboxamido)propanamido)-4-phenylbutyl)boronic acid] | < 50
7 | O=C(N[C@H](Cc1nccs1)C(=O)N[C@@H](CCCc1ccccc1)B(O)O)c1cnccn1 [Compound 1, ((R)-4-phenyl-1-((R)-2-(pyrazine-2-carboxamido)-3-(thiazol-2-yl)propanamido)butyl)boronic acid] | < 50
8 | O=C(N[C@@H](Cc1nccs1)C(=O)N[C@@H](CCCc1ccccc1)B(O)O)c1cnccn1 [Compound 2, ((R)-4-phenyl-1-((S)-2-(pyrazine-2-carboxamido)-3-(thiazol-2-yl)propanamido)butyl)boronic acid] | < 50
9 | Cn1ccc(C[C@@H](NC(=O)c2cnccn2)C(=O)N[C@@H](CCCc2ccccc2)B(O)O)n1 [Compound 3, ((R)-1-((R)-3-(1-methyl-1H-pyrazol-3-yl)-2-(pyrazine-2-carboxamido)propanamido)-4-phenylbutyl)boronic acid] | < 50
10 | O=C(N[C@H](Cc1cnco1)C(=O)N[C@@H](CCCc1ccccc1)B(O)O)c1cnccn1 [Compound 5, ((R)-1-((R)-3-(oxazol-5-yl)-2-(pyrazine-2-carboxamido)propanamido)-4-phenylbutyl)boronic acid] | < 50
11 | O=C(N[C@@H](Cc1cnco1)C(=O)N[C@@H](CCCc1ccccc1)B(O)O)c1cnccn1 [Compound 6] | < 50
12 | O=C(N[C@H](Cc1c[nH]c2ccccc12)C(=O)N[C@@H](CCCc1ccccc1)B(O)O)c1cnccn1 [Compound 7, ((R)-1-((R)-3-(1H-indol-3-yl)-2-(pyrazine-2-carboxamido)propanamido)-4-phenylbutyl)boronic acid] | 50 to 500
13 | CC(C)C[C@H](NC(=O)[C@@H](Cc1nccn1C)NC(=O)c1cnccn1)B(O)O [Compound 8, ((R)-3-methyl-1-((R)-3-(1-methyl-1H-imidazol-2-yl)-2-(pyrazine-2-carboxamido)propanamido)butyl)boronic acid] | 50 to 500
